Measurements as given in patent US7214539B2, “Scintillation proximity test” (GE Healthcare Limited, priority 1997, dated 2007).
pIC50: −log10 of the molar value.

Assays:
[1] = molecular target: T1, HIV reverse transcriptase (Human immunodeficiency virus type 1 group M subtype B, UniProt P04585); assay: Reverse transcriptase inhibition assay with streptavidin-coated polystyrene europium beads and CCD imaging; format: biochemical
T1 construct: 0.05 units of HIV reverse transcriptase (Amersham T3610Y); purchased Amersham T3610Y
Method: The reverse transcriptase enzyme SPA assay (Amersham NK8972) is a homogeneous assay system which uses a biotinylated DNA/RNA oligonucleotide enzyme substrate which is captured on streptavidin PVT SPA beads for quantification. In this assay, streptavidin-coated organic chelate beads prepared from polystyrene (PST) containing europium were used and the inhibition of reverse transcriptase by aurintricarboxylic acid determined.
Biotinylated, ready annealed primer/template was added to the wells of a white microplate. This was followed by [^3H]TTP (Amersham TRK576) in 127 nM mixture of dATP, dCTP, dGTP, and TTP buffered in tris/HCl pH 8.0, 80 mM KCl, 10 mM MgCl2, 10 mM DTT and 0.05% w/v Nonidet P40. Aurintricarboxylic acid at concentrations between 0.05 and 1 μM was added and the reactions were initiated by the addition of 0.05 units of HIV reverse transcriptase (Amersham T3610Y). Plates were incubated at 37° C. for 20 minutes and were terminated with the addition of stop reagent. 0.1 mg of streptavidin coated PST beads was added and the plates were incubated overnight at room temperature. The signal generated was detected using the CCD imaging system.

[2] = molecular target: T1, HIV reverse transcriptase; assay: Reverse transcriptase enzyme SPA assay (conventional SPA, streptavidin PVT SPA beads); format: biochemical
Source text: The reverse transcriptase enzyme SPA assay (Amersham NK8972) is a homogeneous assay system which uses a biotinylated DNA/RNA oligonucleotide enzyme substrate which is captured on streptavidin PVT SPA beads for quantification. […]

In the case of O=C(O)C1=CC(=C(c2ccc(O)c(C(=O)O)c2)c2ccc(O)c(C(=O)O)c2)C=CC1=O [aurintricarboxylic acid], the pIC50 [1] was 6.64, the “inhibition of reverse transcriptase activity” value ([1]; 1 μM of inhibitor, PST beads, CCD imaging) was 85% and the pIC50 [2] was 6.74.
